{
  "source": "patent US7780647B2",
  "about": "“Medical device with therapeutic agents” (Cook Incorporated, priority 2003, dated 2010)",
  "origin": "cited, not measured here",
  "key": {"[1]": {"system": "smooth muscle cell proliferation", "settings": "both in vitro and in vivo"}, "[2]": {"system": "restenosis of human coronary arteries", "settings": "following stent use"}},
  "data": [
    {"smiles": "CC(=O)O[C@H]1C(=O)[C@@]2(C)[C@H]([C@H](OC(=O)c3ccccc3)[C@]3(O)C[C@H](OC(=O)[C@H](O)[C@@H](NC(=O)c4ccccc4)c4ccccc4)C(C)=C1C3(C)C)[C@]1(OC(C)=O)CO[C@@H]1C[C@@H]2O", "note": "[paclitaxel]", "values": [
      {"measurement": "smooth muscle cell proliferation", "setting": "[1]", "value": "inhibits smooth muscle cell proliferation"},
      {"measurement": "restenosis of human coronary arteries", "setting": "[2]", "value": "decrease restenosis"}
    ]}
  ]
}
